15 compounds from US20100197724A1, “6.5 -PYRROLOPIPERIDINE TACHYKININ RECEPTOR ANTAGONISTS” (priority 2007, published 2010) can be followed below.

The target in this assay is T1, human neurokinin-1 receptor (NK1R) (Homo sapiens, UniProt P25103).
T1 construct: expressed in transfected cells
In words: 125I-substance P binding assay of human NK1R expressed in COS or CHO cells. Conditions: competition with 125I-substance P. As for the experimental part: Receptor Expression in COS: To express the cloned human neurokinin-1 receptor (NK1R) transiently in COS, the cDNA for the human NK1R was cloned into the expression vector pCDM9 which was derived from pCDM8 (INVITROGEN) by inserting the ampicillin resistance gene (nucleotide 1973 to 2964 from BLUESCRIPT SK+) into the Sac II site. Transfection of 20 ug of the plasmid DNA into 10 million COS cells was achieved by electroporation in 800 ul of transfection buffer (135 mM NaCl, 1.2 mM CaCl2, 1.2 mM MgCl2, 2.4 mM K2HPO4, 0.6 mM KH2PO4, 10 mM glucose, 10 mM HEPES pH 7.4) at 260 V and 950 uF using the IBI GENEZAPPER (IBI, New Haven, Conn.). The cells were incubated in 10% fetal calf serum, 2 mM glutamine, 100 U/ml penicillin-streptomycin, and 90% DMEM media (GIBCO, Grand Island, N.Y.) in 5% CO2 at 37° C. for three days before the binding assay.
Stable Expression in CHO: To establish a stable cell line expressing the cloned human NK1R, the cDNA was subcloned into the vector pRcCMV (INVITROGEN). Transfection of 20 ug of the plasmid DNA into CHO cells was achieved by electroporation in 800 ul of transfection buffer supplemented with 0.625 mg/ml Herring sperm DNA at 300 V and 950 uF using the IBI GENEZAPPER (IBI). The transfected cells were incubated in CHO media [10% fetal calf serum, 100 U/ml penicillin-streptomycin, 2 mM glutamine, 1/500 hypoxanthine-thymidine (ATCC), 90% IMDM media (JRH BIOSCIENCES, Lenexa, Kans.), 0.7 mg/ml G418 (GIBCO)] in 5% CO2 at 37° C. until colonies were visible. Each colony was separated and propagated. The cell clone with the highest number of human NK1R was selected for subsequent applications such as drug screening.
Assay Protocol using COS or CHO: The binding assay of human NK1R expressed in either COS or CHO cells is based on the use of ^125I-substance P (^125I-SP, from DU PONT, Boston, Mass.) as a radioactively labeled ligand which competes with unlabeled substance P or any other ligand for binding to the human NK1R. Monolayer cell cultures of COS or CHO were dissociated by the non-enzymatic solution (SPECIALTY MEDIA, Lavallette, N.J.) and resuspended in appropriate volume of the binding buffer (50 mM Tris pH 7.5, 5 mM MnCl2, 150 mM NaCl, 0.04 mg/ml bacitracin, 0.004 mg/ml leupeptin, 0.2 mg/ml BSA, 0.01 mM phosphoramidon) such that 200 ul of the cell suspension would give rise to about 10,000 cpm of specific ^125I-SP binding (approximately 50,000 to 200,000 cells). In the binding assay, 200 ul of cells were added to a tube containing 20 ul of 1.5 to 2.5 nM of ^125I-SP and 20 ul of unlabeled substance P or any other test compound. The tubes were incubated at 4° C. or at room temperature for 1 hour with gentle shaking. The bound radioactivity was separated from unbound radioactivity by GF/C filter (BRANDEL, Gaithersburg, Md.) which was pre-wetted with 0.1% polyethylenimine. The filter was washed with 3 ml of wash buffer (50 mM Tris pH 7.5, 5 mM MnCl2, 150 mM NaCl) three times and its radioactivity was determined by gamma counter. The activation of phospholipase C by NK1R may also be measured in CHO cells expressing the human NK1R by determining the accumulation of inositol monophosphate which is a degradation product of IP3. CHO cells are seeded in 12-well plate at 250,000 cells per well. After incubating in CHO media for 4 days, cells are loaded with 0.025 uCi/ml of ^3H-myoinositol by overnight incubation. The extracellular radioactivity is removed by washing with phosphate buffered saline. LiCl is added to the well at final concentration of 0.1 mM with or without the test compound, and incubation is continued at 37° C. for […]. Substance P is added to the well at final concentration of 0.3 nM to activate the human NK1R. After 30 min of incubation at 37° C., the media is removed and 0.1 N HCl is added. Each well is sonicated at 4° C. and extracted with CHCl3/methanol (1:1). The aqueous phase is applied to a 1 ml Dowex AG 1X8 ion exchange column. […]

T1 sequence (P25103 whole entry): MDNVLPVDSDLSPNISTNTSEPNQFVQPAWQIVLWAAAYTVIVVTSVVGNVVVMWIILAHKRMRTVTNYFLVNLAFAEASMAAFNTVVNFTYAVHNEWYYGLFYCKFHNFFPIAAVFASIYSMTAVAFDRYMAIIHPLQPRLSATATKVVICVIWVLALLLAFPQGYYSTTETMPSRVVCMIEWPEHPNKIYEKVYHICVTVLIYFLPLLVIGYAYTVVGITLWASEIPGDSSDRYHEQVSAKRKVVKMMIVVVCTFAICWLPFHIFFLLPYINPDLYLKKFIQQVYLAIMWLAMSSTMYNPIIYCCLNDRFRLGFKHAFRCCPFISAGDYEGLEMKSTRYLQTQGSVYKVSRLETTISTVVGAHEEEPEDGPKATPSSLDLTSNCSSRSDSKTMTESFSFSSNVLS

As to `Cc1ccccc1[C@H]1[C@@H]2CN(C(=O)C3CCC(=O)N(C)C3)C[C@H]2CCN1C(=O)N(C)[C@H](C)c1cc(C(F)(F)F)cc(C(F)(F)F)c1` (stereo partly drawn) [Example 19, (3aS,4R,7aS)-N-{(1R)-1-[3,5-bis(trifluoromethyl)phenyl]ethyl}-N-methyl-2-[(1-methyl-6-oxopiperidin-3-yl)carbonyl]-4-(2-methylphenyl)octahydro-5H-pyrrolo[3,4-c]pyridine-5-carboxamide], the IC50 (as a rule, the point on the concentration scale where inhibition reaches its midpoint) was 90 pM. Turning to `Cc1ccccc1[C@H]1[C@@H]2CN(C(=O)C3CCN(C(N)=O)CC3)C[C@H]2CCN1C(=O)N(C)[C@H](C)c1cc(C(F)(F)F)cc(C(F)(F)F)c1` [Example 20, (3aS,4R,7aS)-2-{[1-(aminocarbonyl)piperidin-4-yl]carbonyl}-N-{(1R)-1-[3,5-bis(trifluoromethyl)phenyl]ethyl}-N-methyl-4-(2-methylphenyl)octahydro-5H-pyrrolo[3,4-c]pyridine-5-carboxamide], the IC50 was 185 pM. On to `Cc1ccccc1[C@H]1[C@@H]2CN(C3CCOCC3)C[C@H]2CCN1C(=O)N(C)[C@H](C)c1cc(C(F)(F)F)cc(C(F)(F)F)c1` [Example 21, (3aS,4R,7aS)-N-{(1R)-1-[3,5-bis(trifluoromethyl)phenyl]ethyl}-N-methyl-4-(2-methylphenyl)-2-(tetrahydro-2H-pyran-4-yl)octahydro-5H-pyrrolo[3,4-c]pyridine-5-carboxamide], for which the IC50 was 85 pM. This IC50 is about 2.2-fold lower than that of the compound before. For the compound `CC(=O)N1CCC(N2C[C@H]3CCN(C(=O)N(C)[C@H](C)c4cc(C(F)(F)F)cc(C(F)(F)F)c4)[C@@H](c4ccccc4C)[C@@H]3C2)CC1` [Example 22, (3aS,4R,7aS)-2-(1-acetylpiperidin-4-yl)-N-{(1R)-1-[3,5-bis(trifluoromethyl)phenyl]ethyl}-N-methyl-4-(2-methylphenyl)octahydro-5H-pyrrolo[3,4-c]pyridine-5-carboxamide], the IC50 was found to be 89 pM.

For the compound `Cc1ccccc1[C@H]1C2CN(CC(C)(C)CO)C[C@H]2CCN1C(=O)N(C)[C@H](C)c1cc(C(F)(F)F)cc(C(F)(F)F)c1` (stereo partly drawn) [Example 23], the IC50 was determined as 94 pM. As to `Cc1cc(F)ccc1[C@H]1[C@@H]2CN(Cc3ccccc3)C[C@H]2CCN1C(=O)N(C)[C@H](C)c1cc(C(F)(F)F)cc(C(F)(F)F)c1` [Example 25, (3aS,4R,7aS)-2-benzyl-N-{(1R)-1-[3,5-bis(trifluoromethyl)phenyl]ethyl}-4-(4-fluoro-2-methylphenyl)-N-methyloctahydro-5H-pyrrolo[3,4-c]pyridine-5-carboxamide], the IC50 turned out to be 52 pM. Compound `Cc1cc(F)ccc1[C@H]1C2CNC[C@H]2CCN1C(=O)N(C)[C@H](C)c1cc(C(F)(F)F)cc(C(F)(F)F)c1` (stereo partly drawn) [Example 26, (3aS,4R,7aS)-N-{(1R)-1-[3,5-bistrifluoromethyl)phenyl]ethyl}-4-(4-fluoro-2-methylphenyl-N-methyloctahydro-5H-pyrrolo[3,4-c]pyridine-5-carboxamide] yielded an IC50 of 31 pM. This IC50 is about 1.7-fold lower than that of the compound before. The compound `Cc1cc(F)ccc1[C@H]1[C@@H]2CN(C3=NC(=O)CO3)C[C@H]2CCN1C(=O)N(C)[C@H](C)c1cc(C(F)(F)F)cc(C(F)(F)F)c1` [Example 28, (3aS,4R,7aS)-N-{(1R)-1-[3,5-bis(trifluoromethyl)phenyl]ethyl}-4-(4-fluoro-2-methylphenyl)-N-methyl-2-(4-oxo-4,5-dihydro-1,3-oxazol-2-yl)octahydro-5H-pyrrolo[3,4-c]pyridine-5-carboxamide] gave an IC50 of 77 pM.

Regarding `Cc1cc(F)ccc1[C@H]1C2CN(C3=CC(=O)OC3)C[C@H]2CCN1C(=O)N(C)[C@H](C)c1cc(C(F)(F)F)cc(C(F)(F)F)c1` (stereo partly drawn) [Example 29], the IC50 was determined as 115 pM. The compound `Cc1cc(F)ccc1[C@H]1[C@@H]2CN(C(=O)[C@H](C)O)C[C@H]2CCN1C(=O)N(C)[C@H](C)c1cc(C(F)(F)F)cc(C(F)(F)F)c1` [Example 30, (3aS,4R,7aS)-N-{(1R)-1-[3,5-bis(trifluoromethyl)phenyl]ethyl}-4-(4-fluoro-2-methylphenyl)-2-[(2S)-2-hydroxypropanoyl]-N-methyloctahydro-5H-pyrrolo[3,4-c]pyridine-5-carboxamide] gave an IC50 of 72 pM. Next, `Cc1cc(F)ccc1[C@H]1[C@@H]2CN(C(=O)[C@@H](C)O)C[C@H]2CCN1C(=O)N(C)[C@H](C)c1cc(C(F)(F)F)cc(C(F)(F)F)c1` [Example 31, (3aS,4R,7aS)-N-{(1R)-1-[3,5-bis(trifluoromethyl)phenyl]ethyl}-4-(4-fluoro-2-methylphenyl)-2-[(2R)-2-hydroxypropanoyl]-N-methyloctahydro-5H-pyrrolo[3,4-c]pyridine-5-carboxamide]: 57 pM.

For `Cc1cc(F)ccc1[C@H]1[C@@H]2CN(C(=O)C(C)(C)C)C[C@H]2CCN1C(=O)N(C)[C@H](C)c1cc(C(F)(F)F)cc(C(F)(F)F)c1` [Example 33, (3aS,4R,7aS)-N-{(1R)-1-[3,5-bis(trifluoromethyl)phenyl]ethyl}-2-(2,2-dimethylpropanoyl)-4-(4-fluoro-2-methylphenyl)-N-methyloctahydro-5H-pyrrolo[3,4-c]pyridine-5-carboxamide], the IC50 was 66 pM. This IC50 and that of the compound before are within 1.5-fold of each other. In the case of `Cc1cc(F)ccc1[C@H]1C2CN(C(=O)C3CCOCC3)C[C@H]2CCN1C(=O)N(C)[C@H](C)c1cc(C(F)(F)F)cc(C(F)(F)F)c1` (stereo partly drawn) [Example 34], the IC50 amounted to 48 pM. In turn, `Cc1cc(F)ccc1[C@H]1[C@@H]2CN(C3CCOCC3)C[C@H]2CCN1C(=O)N(C)[C@H](C)c1cc(C(F)(F)F)cc(C(F)(F)F)c1` [Example 35, (3aS,4R,7aS)-N-{(1R)-1-[3,5-bis(trifluoromethyl)phenyl]ethyl}-4-(4-fluoro-2-methylphenyl)-N-methyl-2-(tetrahydro-2H-pyran-4-yl)octahydro-5H-pyrrolo[3,4-c]pyridine-5-carboxamide] came in with an IC50 of 111 pM.

Regarding `CC(=O)N1CCC(N2C[C@H]3CCN(C(=O)N(C)[C@H](C)c4cc(C(F)(F)F)cc(C(F)(F)F)c4)[C@@H](c4ccc(F)cc4C)[C@@H]3C2)CC1` [Example 36, (3aS,4R,7aS)-2-(1-acetylpiperidin-4-yl)-N-{(1R)-1-[3,5-bis(trifluoromethyl)phenyl]ethyl}-4-(4-fluoro-2-methylphenyl)-N-methyloctahydro-5H-pyrrolo[3,4-c]pyridine-5-carboxamide], the IC50 worked out at 108 pM. This IC50 and that of the compound before are within 1.5-fold of each other.
